Assay [1] relates to S. aureus. The experiment in a line: MB-mediated PDI in vitro with/without KI. The assay is classed as cell-based, Staphylococcus aureus (NCTC 8325). The following applies: without light. How it is done: (§1) 2) Staphylococcus aureus (NCTC 8325) and Escherichia coli K12 (ATCC 33780) were chosen as representative Gram (+) and Gram (−) bacteria respectively, for in vitro studies. A colony of bacteria was suspended in 25 ml of brain heart infusion (BHI) broth (Becton, Dickinson, and Company, Franklin Lakes, N.J.) and grown overnight in a shaker incubator (New Brunswick Scientific, Edison, N.J.) at 120 rpm in aerobic condition at 37° C. An aliquot of 1 ml from overnight suspension was refreshed in fresh BHI for 2 hours at 37° C. to mid-log phase. Cell concentration was estimated by measuring the optical density (OD) at 600 nm [OD of 0.8=10^8 colony forming units (CFU) cells/mL]. Bacterial suspension was centrifuged, washed and re-suspended in PBS to arrest microbial growth, and used (10^8 CFU) for the in vitro or in vivo experiments.
(§2) In vitro PDI studies were carried with S. aureus and with E. coli. […] An aliquot of 100 ul was used as dark control from each sample, another (100 ul) was irradiated with 5 J/cm^2 dose of light (660 nm light) and then placed in a new 96 well plate. The aliquots were serially diluted 10-fold in PBS to give dilutions of 10^1 to 10^5 times in addition to the original concentration. From each dilution 10 microleter aliquots were seeded horizontally on BHI agar. […] Each experiment was performed at least three times.

Assay [2] has as its system E. coli. The experiment in a line: MB-mediated PDI in vitro with/without KI. It is filed as cell-based, Escherichia coli K12 (ATCC 33780). The following applies: without light. How it is done:
as §1, §2

Assay [3] deals with S. aureus. The experiment in a line: Bacteria added after completion of light delivery (MB). It is filed as cell-based, Staphylococcus aureus. The following applies: solution irradiated 5 J/cm^2, incubation 5-30 minutes. Here is the method: (§3) To verify if long-lived species such as molecular iodine (I2) or hypoiodous acid (HOI) could be responsible for increased bacterial killing we added bacteria after completion of light delivery.
(§4) We irradiated with 5 J/cm^2 the solutions containing MB or MB+KI to generate the iodine species observed in the spectra described above. Since […] is a stable molecule, and even HOI is reasonably stable with a measurable half-life, by incubating the cells in a solution that could contain photochemically produced bactericidal concentrations of I2 or HOI, we expected to observe bacterial killing. We added bacterial cells and we evaluated the survival fraction of bacteria in an incubation time range between 5 and 30 minutes.

Assay [4] relates to E. coli. The assay is described as above. It is filed as cell-based, Escherichia coli. To be noted: solution irradiated 5 J/cm^2, incubation 5-30 minutes. How it is done:
as §3, §4

For a further assay, the system named is MRSA. Kind of assay: In vivo PDI of burn infected with bioluminescent MRSA. More on the design: species or system murine. The source says:
In another related embodiment, the implementation of invention as discussed in Example 1 was extended to in vivo studies in a murine infection model of burn and carried out with the use of bioluminescent MRSA and in vivo imaging. The goal here was to verify the increase of the efficacy of PDI-process of bacterial killing by adding KI to MB in an in vivo infection model.
Aggregately, FIGS. 17A through 17E represent a set of 5 representative bioluminescence image time courses from the burn (each time course from a single mouse in each of the 5 groups) infected with MRSA. […] The amount of light required to eradicate bacteria from the wound was much less when the bacteria treated with the (MB+KI) solution was irradiated than when MB alone was used to pre-treat bacteria prior to irradiation.

Molecules are shown by their SMILES.

`CN(C)c1ccc2nc3ccc(=[N+](C)C)cc-3sc2c1` [MB, Methylene blue]: the dark toxicity entry in the assay with S. aureus [1] and with E. coli [2] was “lack of killing without light” each time. In addition, the “killing of bacteria added after irradiation of the solution” value with S. aureus [3] and with E. coli [4] was “did not observe any bacterial killing” each time. In addition, the “bacterial bioluminescence during PDI” value in the assay on MRSA (50 μM MB, with or without 10 mM KI, 660 nm up to 150 J/cm^2) is given as “light dose-dependent reduction”. In addition, the “decrease in bacterial bioluminescence” value with MRSA (660 nm light, n=6) was “around 2 log unit”. In the assay with MRSA (follow-up over days after PDI), the “bacterial re-growth / recurrence after PDI” value is given as “not effective to prevent recurrence”.

Source of the values: patent US11135445B2, “Antimicrobial photodynamic inactivation procedure and system” (The General Hospital Corporation, priority 2014, dated 2021).
